Data: patent US6646005B1, “Method of treating hair loss using sulfonyl thyromimetic compounds” (The University of Texas Southwestern Medical Center, priority 1999, dated 2003)

Tested on: male Sprague Dawley rats
Assay: Cardiotoxicity Assay (heart-to-body weight ratio)
Format: in vivo, rat
Conditions: 250 μg per kg subcutaneously once daily for 28 days, hearts weighed day 30
Text: The cardiotoxicity assay measures the potential of a test compound to adversely affect the cardiovascular system. As thyroid hormone (T3) damages the cardiovascular system, the heart enlarges. See, e.g., Gomberg-Maitland et al., “Thyroid hormone and Cardiovascular Disease”, American Heart Journal, Vol. 135(2), pp. 187-196 (1998); Klein and Ojamaa, “Thyroid Hormone and the Cardiovascular System”, Current Opinion in Endocrinology and Diabetes, Vol. 4, pp.341-346 (1997); and Klemperer et al., “Thyroid Hormone Therapy and Cardiovascular Disease”, Progress in Cardiovascular Diseases, Vol. 37 (4), pp. 329-336 (1996). This increases the weight of the heart relative to whole body weight. The cardiotoxicity assay herein below is used to test compounds for potentially adverse cardiac effects by measuring their effect on the heart-to-body weight ratio.
Two groups each of six male Sprague Dawley rats (Harlan Sprague Dawley, Inc., Indianapolis, Ind.) (each weighing from approximately 220 grams to 235 grams) are utilized. The first group is a vehicle control group and the second group is a test compound group. The length of the assay is 30 days, with treatment of vehicle or test compound in vehicle daily for 28 of those days as described below.
Prior to initiation of the assay, each rat is allowed to acclimate to standard environmental conditions for 5 days. […]

N[C@@H](Cc1cc(I)c(Oc2cc(I)c(O)c(I)c2)c(I)c1)C(=O)O [T4, thyroxine]
cardiac-sparing (index C = RT/RV, heart/body ratio of test compound group over vehicle control group): not cardiac-sparing
